This is an account of results in US20100076072A1, “COMPOSITIONS AND METHODS OF VITAMIN E ADMINISTRATION” (NORTHWESTERN UNIVERSITY, priority 2008, published 2010).

The subject of assay [1] is OVA-challenged mice (experimental asthma). Description: OVA experimental asthma: leukocyte infiltration into bronchoalveolar lavage (BAL). Particulars: OVA-challenged BALB/c mice, daily s.c. 2 μg tocopherol days 13-20, day 21, vs OVA-challenged vehicle. It is filed as in vivo, mouse. How it is done:
Reagents. Ethoxylated castor oil was composed of polyethoxylated castor oil (PEG35), 20% ethanol, and 1% benzyl alcohol. […] The purified tocopherols were diluted in ethoxylated castor oil to indicated concentrations for the in vivo studies. The purified tocopherols were diluted in DMSO (0.2%) for the in vitro studies. OVA administration. BALB/c female mice were maintained on chow diet. The mice were sensitized by intraperitoneal injection (200 μl) of OVA grade V (10 μg)/alum or saline/alum on days 0 and 7 (SEE FIG. 1). On days 13-20, these mice received daily subcutaneous injections (50 μl) of 2 μg natural tocopherol/ethoxylated castor oil or ethoxylated castor oil alone. This daily 2 μg of natural tocopherol is equivalent to the amount of tocopherol that mice consume from diets (4 g diet consumed/day×500 mg α-tocopherol/kg diet) that are commonly used to elevate tissue tocopherols in mice. The mice recieved 2 μg d-α-tocopherol, 2 μg d-γ-tocopherol, 2 μg d-α-tocopherol plus 2 μg d-γ-tocopherol or the vehicle exthoxylated castor oil. […] During the OVA responses in mice, tocopherol radicals are recycled by endogenously synthesized ascorbic acid. On days 16, 18, and 20, the mice were challenged with intranasal OVA fraction VI (150 μg) in saline or saline alone. On day 21, the mice were analyzed for airway responsiveness followed by collection of tissues.
Tissue collection. After airway function analysis, mice were weighed, sacrificed and the lungs flushed twice with 0.8 ml PBS. The cells in this bronchoalveolar lavage (BAL) were cytospun onto slides, DiffQuik (Baxter) stained, and differential cell counts were performed. BAL supernatants were snap frozen and stored at −80° C. for cytokine analysis. Lungs were perfused free of blood and one quarter of the lung was tied off, collected, weighed, snap frozen, and stored at −80° C. for tocopherol analysis and PGE2 analysis. One quarter of the lung was collected and placed in RNA later for analysis of mRNA for eotaxin expression. The other half of the lung was injected with 40% freezing compound, collected and stored at −80° C. for tissue sections and histological staining Frozen sections were prepared rather than paraffin sections since the anti-mouse VCAM-1 antibodies only bind to VCAM-1 in frozen sections.
(§1) Mice were sensitized with intraperitoneal injection of OVA grade V (10 μg)/alum or saline/alum on days 0 and 7 (SEE FIG. 2). On days 13-20, these mice received daily subcutaneous injections (500) of 2 μg natural tocopherol/ethoxylated castor oil (33) or ethoxylated castor oil alone. This daily 2 μg of natural tocopherol is equivalent to the amount of tocopherol that mice consume from diets (4 g diet consumed/day×500 mg a tocopherol/kg diet) that are commonly used to elevate tissue tocopherols in mice. On days 16, 18, and 20 the mice were challenged with intranasal OVA fraction VI (150 μg) in saline or saline alone. On day 21, the mice were analyzed for airway responsiveness and then tissues were collected. Lung responsiveness was determined using methacholine and whole-body plethysmography as previously described. This method of measuring lung function has the advantage of analysis of larger numbers of animals, as compared to the few animals that can be analyzed using invasive measures of lung function. The whole-body plethysmography correlates well with airway function when performed under continuous flow conditions. This measurement under continuous flow is critical as it avoids the complication of airway conditioning that occurs if these measurements are incorrectly made under closed conditions. After airway analysis, mice were sacrificed and tissues collected.

Assay [2] shares this test system. The assay can be described thus: Airway hyperresponsiveness to methacholine, whole-body plethysmography (Penh). The class given is in vivo, mouse. Particulars: OVA-challenged BALB/c mice, methacholine dose curve, day 21. On the procedure:
Airway Hyperresponsiveness. Lung responsiveness was determined using methacholine as previously described. On day 21, the mice were analyzed for airway responsiveness by whole body plethysmology. The whole-body plethysmography on conscious, unrestrained mice was performed under continuous airflow conditions (Buxco, Troy, N.Y.). Continuous airflow was used to avoid the influence of conditioning on airway functions, causing aberrant measurements. Enhanced pause (Penh) values were calculated from the flow-derived whole-body plethysmography measurements done with continuous air flow. Penh is a unitless indicator of changes in airway resistance and correlates well with specific airway resistance. Baseline readings were averaged for 5 minutes. Saline or methacholine was nebulized into the airflow for 2-minute periods and the average Penh value calculated for this and the subsequent 8 minutes.
as §1, with “This measurement under continuous flow is critical as it avoids the complication of airway conditioning that occurs if these measurements are incorrectly made under closed conditions. After airway analysis, mice were sacrificed and tissues collected.” left out

A further assay has as its target T1, PKCα (Mus musculus, UniProt P20444).
T1 construct: endogenous in cells; host or cells: endothelial cells (mHEVa named)
The assay can be described thus: VCAM-1 activation of endothelial cell PKCα (PKCα-Thr638 phosphorylation, western blot). Conditions: overnight 80 μM α-tocopherol / 2 μM γ-tocopherol; anti-VCAM-1 stimulation 10 minutes. It is filed as cell-based. On the procedure: Endothelial cells were pretreated overnight with physiological concentrations of tocopherols (80 μM α-tocopherol and/or 2 μM γ-tocopherol). Endothelial cell VCAM-1 was stimulated with anti-VCAM-1 and a secondary antibody for 10 minutes. Phosphorylation of PKCα-Thr^638 was examined by western blot, developed using an ECL kit, and analyzed by densitometry as in the methods section. These concentrations of α-tocopherol (80 μM) and γ-tocopherol (2 μM) were optimal for their inhibition or enhancement, respectively, of VCAM-1 activation of PKCα (data not shown). Shown are representative blots and data from 5 experiments. *, p<0.05 compared to nonstimulated groups. **, p<0.05 compared to nonstimulated groups and p<0.07 compared to DMSO-treated/anti-VCAM-stimulated group.
Background: Immunoblotting shows a protein as a band on a membrane.

Assay [3] concerns endotoxin-stimulated neutrophil infiltration into the lung. Particulars: other animal models; cited from earlier work.
In the next assay the test system is lung. Conditions: in vivo; cited from earlier work.

Take `Cc1c(C)c2c(c(C)c1O)CC[C@@](C)(CCC[C@H](C)CCC[C@H](C)CCCC(C)C)O2` [α-tocopherol, d-α-tocopherol, reference compound]: in assay [1], the “OVA-stimulated infiltration of eosinophils into the BAL” value is “significantly reduced”, the “OVA-stimulated infiltration of lymphocytes into the BAL” value is “significantly reduced” and the “OVA-stimulated infiltration of monocytes into the BAL” value is “significantly reduced”. Besides, in assay [2], the “Airway hyperresponsiveness (AHR), enhanced pause (Penh)” value is “completely ablated”. Further, the “VCAM-1 activation of PKCα (phosphorylation of PKCα-Thr638)” value on PKCα is “inhibition”. Moreover, in assay [3], the “Endotoxin-stimulated neutrophil infiltration into the lung” value was “reduces”. The “High oxidation by ozone and smoke in the lung” value in the assay with lung is given as “reduces”.
